US11591326B2, “Inhibitors of protein arginine methyltransferase 5 (PRMT5), pharmaceutical products thereof, and methods thereof” (PHARMABLOCK SCIENCES (NANJING), INC., priority 2018, dated 2023)

molecular target: Human recombinant PRMT5 in complex with human recombinant MEP50 (Homo sapiens (Human), UniProt O14744); test: PRMT5/MEP50 AlphaLISA enzyme inhibitory assay; format: biochemical; conditions: PRMT5/MEP50 25 nM, SAM 10 μM, Biotin-H4 peptide 30 nM
Description: Human recombinant PRMT5 in complex with human recombinant MEP50, co-expressed in an insect cell/baculovirus expression system was purchased from Reaction Biology (Malvern, Pa.). […] Anti-H4R3-Me AlphaLISA acceptor beads and Streptavidin labeled AlphaLISA donor beads were obtained from PerkinElmer (Waltham, Mass.). S-adenosylmethionine (SAM), Tween20, dimethylsulfoxide (DMSO), and Tris buffer were obtained from Sigma at the highest level of purity available.
General Procedure for PRMT5/MEP50 AlphaLISA Enzyme Inhibitory Assays: Assays were performed in the buffer consisting of 50 mM Tris, pH 8.5, 5 mM MgCl2, 50 mM NaCl with 0.01% Tween20 and 1 mM DTT added right before the assay. 2.5 μL of compound solution in the assay buffer with 4% DMSO and 5 μL of PRMT5/MRP50 complex/SAM mixture solution in the assay buffer which was pre-incubated for 30 minutes were added into a white low volume 384 well microtiter plate. This mixture solution was incubated for 15 minutes with gentle shaking at room temperature. Methyl transfer reaction was initiated by adding 2.5 μL of Biotin-H4 (1-21) peptide substrate solution in the assay buffer. Final concentrations of PRMT5/MEP50, SAM, Biotin-H4 peptide substrate, and DMSO were 25 nM, 10 μM, 30 nM, and 1%, respectively. The reaction was allowed to perform for 120 minutes in dark with gentle shaking at room temperature after which 5 μL of Anti-H4R3-Me AlphaLISA acceptor beads in detection buffer from the manufacturer was added into the reaction mixture followed by incubation for 60 minutes. 10 μL of Streptavidin labeled AlphaLISA donor beads in detection buffer was added into the mixture followed by 30 minute incubation. Final acceptor and donor beads concentrations were 10 μg/mL. Plates were read on an Envision multimode plate reader from PerkinElmer (Waltham Mass., USA) with an excitation wavelength of 680 nm and emission wavelength of 615 nm. IC50 values of inhibitors were obtained by fitting the fluorescence intensity vs inhibitor concentrations in a sigmoidal dose-response curve (variable slopes, four parameters) using Prism 7 (La Jolla, Calif.).

Human recombinant PRMT5 in complex with human recombinant MEP50, sequence (O14744 whole entry): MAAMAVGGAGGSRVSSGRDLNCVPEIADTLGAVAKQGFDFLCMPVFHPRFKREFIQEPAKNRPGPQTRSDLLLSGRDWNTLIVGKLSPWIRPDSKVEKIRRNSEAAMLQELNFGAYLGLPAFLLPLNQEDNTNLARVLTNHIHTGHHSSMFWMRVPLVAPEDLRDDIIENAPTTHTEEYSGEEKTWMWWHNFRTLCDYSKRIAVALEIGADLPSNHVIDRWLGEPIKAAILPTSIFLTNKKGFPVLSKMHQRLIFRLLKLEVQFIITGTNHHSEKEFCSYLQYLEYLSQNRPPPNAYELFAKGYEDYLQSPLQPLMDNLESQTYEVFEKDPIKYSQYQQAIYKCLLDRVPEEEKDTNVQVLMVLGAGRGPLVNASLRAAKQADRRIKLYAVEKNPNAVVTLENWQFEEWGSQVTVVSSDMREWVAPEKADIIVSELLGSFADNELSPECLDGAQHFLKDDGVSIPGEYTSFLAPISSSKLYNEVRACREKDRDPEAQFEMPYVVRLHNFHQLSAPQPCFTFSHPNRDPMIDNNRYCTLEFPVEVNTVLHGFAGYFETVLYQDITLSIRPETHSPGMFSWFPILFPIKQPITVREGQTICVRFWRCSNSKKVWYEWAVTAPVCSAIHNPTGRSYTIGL
Human recombinant PRMT5 in complex with human recombinant MEP50, sequence (Q9BQA1 whole entry partner): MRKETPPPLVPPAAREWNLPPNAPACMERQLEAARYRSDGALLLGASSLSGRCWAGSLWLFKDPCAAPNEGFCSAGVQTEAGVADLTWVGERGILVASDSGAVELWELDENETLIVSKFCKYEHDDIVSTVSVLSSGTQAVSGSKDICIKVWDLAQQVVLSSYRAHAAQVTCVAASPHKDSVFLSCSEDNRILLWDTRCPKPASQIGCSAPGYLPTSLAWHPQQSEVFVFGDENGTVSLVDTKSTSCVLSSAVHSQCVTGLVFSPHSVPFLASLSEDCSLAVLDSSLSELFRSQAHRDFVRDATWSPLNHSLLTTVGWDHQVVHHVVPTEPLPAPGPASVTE

IC50 [nM] | Structure (SMILES)
10.3 | O=C1c2cc(Nc3cncnc3)ccc2OCCN1C[C@H](O)CN1CCc2ccccc2C1 [Compound 36, (R)-4-(3-(3,4-dihydroisoquinolin-2(1H)-yl)-2-hydroxypropyl)-7-(pyrimidin-5-ylamino)-3,4-dihydrobenzo[f][1,4]oxazepin-5(2H)-one]
159 | CC(=O)N1CCC(Nc2cc(F)c3c(c2)C(=O)N(C[C@@H](O)CN2CCc4ccccc4C2)CCO3)CC1 [Compound 2b, (S)-7-((1-acetylpiperidin-4-yl)amino)-4-(3-(3,4-dihydroisoquinolin-2(1H)-yl)-2-hydroxypropyl)-9-fluoro-3,4-dihydrobenzo[f][1,4]oxazepin-5(2H)-one]
179 | O=c1c2cc(Nc3ccnnc3)ccc2ncn1CC(O)CN1CCc2ccccc2C1 (stereo not shown) [Compound 31, 3-(3-(3,4-dihydroisoquinolin-2(1H)-yl)-2-hydroxypropyl)-6-(pyridazin-4-ylamino)quinazolin-4(3H)-one]
131 | O=C1c2cc(NC3COC3)ccc2OCCN1CC(O)CN1CCc2ccccc2C1 (stereo not shown) [Compound 5, 4-(3-(3,4-dihydroisoquinolin-2(1H)-yl)-2-hydroxypropyl)-7-(oxetan-3-ylamino)-3,4-dihydrobenzo[f][1,4]oxazepin-5(2H)-one]
6.9 | CN1C(=O)CN(CC(O)CN2CCc3ccccc3C2)C(=O)c2cc(Nc3ccnnc3)ccc21 (stereo not shown) [Compound 44, 4-(3-(3,4-dihydroisoquinolin-2(1H)-yl)-2-hydroxypropyl)-1-methyl-7-(pyridazin-4-ylamino)-3,4-dihydro-1H-benzo[e][1,4]diazepine-2,5-dione]
235 | Cn1cc(Nc2ccc3c(c2)C(=O)N(C[C@@H](O)CN2CCc4ccccc4C2)CC3)cn1 [Compound 12b, (S)-2-(3-(3,4-dihydroisoquinolin-2(1H)-yl)-2-hydroxypropyl)-7-((1-methyl-1H-pyrazol-4-yl)amino)-3,4-dihydroisoquinolin-1(2H)-one]
462 | O=C1c2cc(N[C@@H]3CCOC3)ccc2CCN1C[C@@H](O)CN1CCc2ccccc2C1 [Compound 11, 2-((S)-3-(3,4-dihydroisoquinolin-2(1H)-yl)-2-hydroxypropyl)-7-(((R)-tetrahydrofuran-3-yl)amino)-3,4-dihydroisoquinolin-1(2H)-one]
21 | O=C1c2cc(Nc3cnn(C4COC4)c3)ccc2CCN1CC(O)CN1CCc2ccccc2C1 (stereo not shown) [Compound 22, 2-(3-(3,4-dihydroisoquinolin-2(1H)-yl)-2-hydroxypropyl)-7-((1-(oxetan-3-yl)-1H-pyrazol-4-yl)amino)-3,4-dihydroisoquinolin-1(2H)-one]
37.2 | O=c1c2cc(Nc3ccnnc3)ccc2ccn1CC(O)CN1CCc2ccccc2C1 (stereo not shown) [Compound 32, 2-(3-(3,4-dihydroisoquinolin-2(1H)-yl)-2-hydroxypropyl)-7-(pyridazin-4-ylamino)isoquinolin-1(2H)-one]
568 | O=c1c2cc(NC3COC3)ccc2ncn1CC(O)CN1CCc2ccccc2C1 (stereo not shown) [Compound 3, 3-(3-(3,4-dihydroisoquinolin-2(1H)-yl)-2-hydroxypropyl)-6-(oxetan-3-ylamino)quinazolin-4(3H)-one]
15.8 | O=C1c2cc(Nc3ccnnc3)ncc2OCCN1CC(O)CN1CCc2ccccc2C1 (stereo not shown) [Compound 48, 4-(3-(3,4-dihydroisoquinolin-2(1H)-yl)-2-hydroxypropyl)-7-(pyridazin-4-ylamino)-3,4-dihydropyrido[4,3-f][1,4]oxazepin-5(2H)-one]
9.9 | O=C1c2cc(Nc3ccncn3)ccc2OCCN1C[C@H](O)CN1CCc2ccccc2C1 [Compound 37, (R)-4-(3-(3,4-dihydroisoquinolin-2(1H)-yl)-2-hydroxypropyl)-7-(pyrimidin-4-ylamino)-3,4-dihydrobenzo[f][1,4]oxazepin-5(2H)-one]
36 | O=C1c2cc(Nc3ccnnc3)ccc2OCCN1C[C@@H](O)CN1CCc2ccccc2C1 [Compound 30b, (S)-4-(3-(3,4-dihydroisoquinolin-2(1H)-yl)-2-hydroxypropyl)-7-(pyridazin-4-ylamino)-3,4-dihydrobenzo[f][1,4]oxazepin-5(2H)-one]
